Measured values: US9695155B2, “Herbicidal substituted pyrimidinyloxy benzene compounds” (E. I. DU PONT DE NEMOURS AND COMPANY, priority 2013, dated 2017)

How the values were obtained:
large (Lg) crabgrass = experiment: Test A preemergence; type: in vivo, Digitaria sanguinalis
How it was run: (§1)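 Pre- and postemergence greenhouse screen. Soil: loam + sand. Spray carrier: solvent mixture, non-phytotoxic, with surfactant. Post timing at 1–2 leaves, height 2–10 cm. Readout: visual injury on a 0–100 scale roughly 10 days after application, untreated plants as reference.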

velvetleaf [1] = experiment: Test A preemergence; type: in vivo, Abutilon theophrasti
How it was run: as §1

corn [2] = experiment: Test A preemergence; type: in vivo, Zea mays
How it was run: as §1

barnyardgrass = experiment: Test A postemergence; type: in vivo, Echinochloa crus-galli
How it was run: as §1

giant foxtail [3] = experiment: Test A postemergence; type: in vivo, Setaria faberii
How it was run: as §1

morningglory [4] = experiment: Test A postemergence; type: in vivo, Ipomoea spp.
How it was run: as §1

corn [5] = experiment: Test A postemergence; type: in vivo, Zea mays
How it was run: as §1

Heteranthera limosa = experiment: Test B flooded paddy test; type: in vivo; settings: Flood, 250 g ai/ha; 0 to 100 scale where 0 is no effect and 100 is complete control
How it was run: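 Flooded to 3 cm at the 2-leaf stage, pots received compound through the paddy water and were kept at that depth under greenhouse conditions. After 13–15 days, effect was rated by eye relative to controls, 0 = none and 100 = complete control.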

corn [6] = experiment: Test C postemergence; type: in vivo, Zea mays; settings: for Plant response rating (0 to 100), Corn / Corn plant response rating: postemergence; for Plant response rating (0 to 100), Corn: 0 is no effect, 100 is complete control; for Corn plant response rating: 31 g ai/ha, visual rating; for Corn plant response rating / Plant response rating, Corn: scale 0 to 100 (0 no effect, 100 complete control); for Plant response rating, Corn: Postemergence, 62 g ai/ha
How it was run: (§2)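 Whole-plant greenhouse test with surfactant-containing solvent formulation, applied preemergence to sown loam–sand pots or postemergence to 2–18 cm plants. Scored by eye 13 to 15 days on, 0–100 scale.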

giant foxtail [7] = experiment: Test C postemergence; type: in vivo, Setaria faberii; settings: for Plant response rating (0 to 100), Foxtail, Giant / Foxtail, Giant plant response rating: postemergence; for Plant response rating (0 to 100), Foxtail, Giant: 0 is no effect, 100 is complete control; for Foxtail, Giant plant response rating: 31 g ai/ha, visual rating; for Foxtail, Giant plant response rating / Plant response rating, Foxtail, Giant: scale 0 to 100 (0 no effect, 100 complete control); for Plant response rating, Foxtail, Giant: Postemergence, 62 g ai/ha
How it was run: as §2

johnsongrass = experiment: Test C postemergence; type: in vivo, Sorghum halepense; settings: for Plant response rating (0 to 100), Johnsongrass / Johnsongrass plant response rating: postemergence; for Plant response rating (0 to 100), Johnsongrass: 0 is no effect, 100 is complete control; for Johnsongrass plant response rating: 31 g ai/ha, visual rating; for Johnsongrass plant response rating / Plant response rating, Johnsongrass: scale 0 to 100 (0 no effect, 100 complete control); for Plant response rating, Johnsongrass: Postemergence, 62 g ai/ha
How it was run: as §2

morningglory [8] = experiment: Test C postemergence; type: in vivo, Ipomoea coccinea; settings: for Plant response rating (0 to 100), Morningglory / Morningglory plant response rating: postemergence; for Plant response rating (0 to 100), Morningglory: 0 is no effect, 100 is complete control; for Morningglory plant response rating: 31 g ai/ha, visual rating; for Morningglory plant response rating / Plant response rating, Morningglory: scale 0 to 100 (0 no effect, 100 complete control); for Plant response rating, Morningglory: Postemergence, 62 g ai/ha
How it was run: as §2

pigweed = experiment: Test C postemergence; type: in vivo, Amaranthus retroflexus; settings: for Plant response rating (0 to 100), Pigweed / Pigweed plant response rating: postemergence; for Plant response rating (0 to 100), Pigweed: 0 is no effect, 100 is complete control; for Pigweed plant response rating: 31 g ai/ha, visual rating; for Pigweed plant response rating / Plant response rating, Pigweed: scale 0 to 100 (0 no effect, 100 complete control); for Plant response rating, Pigweed: Postemergence, 62 g ai/ha
How it was run: as §2

oilseed rape = experiment: Test C postemergence; type: in vivo, Brassica napus; settings: for Plant response rating (0 to 100), Oilseed Rape / Oilseed Rape plant response rating: postemergence; for Plant response rating (0 to 100), Oilseed Rape: 0 is no effect, 100 is complete control; for Oilseed Rape plant response rating: 31 g ai/ha, visual rating; for Oilseed Rape plant response rating / Plant response rating, Oilseed Rape: scale 0 to 100 (0 no effect, 100 complete control); for Plant response rating, Oilseed Rape: Postemergence, 62 g ai/ha
How it was run: as §2

waterhemp = experiment: Test C postemergence; type: in vivo, Amaranthus rudis; settings: for Plant response rating (0 to 100), Waterhemp / Waterhemp plant response rating: postemergence; for Plant response rating (0 to 100), Waterhemp: 0 is no effect, 100 is complete control; for Waterhemp plant response rating: 31 g ai/ha, visual rating; for Waterhemp plant response rating / Plant response rating, Waterhemp: scale 0 to 100 (0 no effect, 100 complete control); for Plant response rating, Waterhemp: Postemergence, 62 g ai/ha
How it was run: as §2

velvetleaf [9] = experiment: Test C postemergence; type: in vivo, Abutilon theophrasti; settings: for Plant response rating (0 to 100), Velvetleaf / Velvetleaf plant response rating: postemergence; for Plant response rating (0 to 100), Velvetleaf: 0 is no effect, 100 is complete control; for Velvetleaf plant response rating: 31 g ai/ha, visual rating; for Velvetleaf plant response rating / Plant response rating, Velvetleaf: scale 0 to 100 (0 no effect, 100 complete control); for Plant response rating, Velvetleaf: Postemergence, 62 g ai/ha
How it was run: as §2

[10] = 125 g ai/ha, 0 to 100 scale where 0 is no effect and 100 is complete control
[11] = 500 g ai/ha, 0 to 100 scale where 0 is no effect and 100 is complete control
[12] = 1000 g ai/ha, 0 to 100 scale, 0 no effect, 100 complete control, approx. 10 days
[13] = 1000 g ai/ha, 0 to 100 scale, 0 no effect, 100 complete control

Compound: O=Cc1cccc(Oc2ncc(I)cn2)c1-n1cc(Br)cn1 [Compound 172]
- Plant response rating, Crabgrass, Large (large (Lg) crabgrass; [10]): 0
- Crabgrass, Large plant response rating (large (Lg) crabgrass; [11]): 30
- Velvetleaf plant response rating (0 to 100 scale) (velvetleaf [1]; 125 g ai/ha): 0
- Velvetleaf plant response rating (velvetleaf [1]; [11]): 0
- Plant response rating, Corn (corn [2]; [10]): 0
- Corn plant response rating (corn [2]; [11]): 0
- Barnyardgrass plant response rating (barnyardgrass; [10]): 30
- Plant response rating, Barnyardgrass (barnyardgrass; [11]): 60
- Foxtail, Giant plant response rating (giant foxtail [3]; [10]): 0
- Plant response rating, Foxtail, Giant (giant foxtail [3]; [11]): 20
- Morningglory plant response rating (morningglory [4]; [10]): 80
- Plant response rating, Morningglory (morningglory [4]; [11]): 90
- Corn plant response rating (corn [5]; [10]): 0
- Plant response rating, Corn (corn [5]; [11]): 20
- Plant response rating, Ducksalad (Heteranthera limosa): 0
- Plant response rating (0 to 100), Corn (corn [6]; 8 g ai/ha): 0
- Plant response rating (0 to 100), Corn (corn [6]; 16 g ai/ha): 0
- Corn plant response rating (corn [6]; 13 to 15 days): 0
- Plant response rating, Corn (corn [6]): 0
- Plant response rating (0 to 100), Foxtail, Giant (giant foxtail [7]; 8 g ai/ha): 0
- Plant response rating (0 to 100), Foxtail, Giant (giant foxtail [7]; 16 g ai/ha): 10
- Foxtail, Giant plant response rating (giant foxtail [7]; 13 to 15 days): 0
- Plant response rating, Foxtail, Giant (giant foxtail [7]): 5
- Plant response rating (0 to 100), Johnsongrass (johnsongrass; 8 g ai/ha): 0
- Plant response rating (0 to 100), Johnsongrass (johnsongrass; 16 g ai/ha): 0
- Johnsongrass plant response rating (johnsongrass; 13 to 15 days): 10
- Plant response rating, Johnsongrass (johnsongrass): 10
- Plant response rating (0 to 100), Morningglory (morningglory [8]; 8 g ai/ha): 0
- Plant response rating (0 to 100), Morningglory (morningglory [8]; 16 g ai/ha): 0
- Morningglory plant response rating (morningglory [8]; 13 to 15 days): 20
- Plant response rating, Morningglory (morningglory [8]): 10
- Plant response rating (0 to 100), Pigweed (pigweed; 8 g ai/ha): 5
- Plant response rating (0 to 100), Pigweed (pigweed; 16 g ai/ha): 10
- Pigweed plant response rating (pigweed; 13 to 15 days): 10
- Plant response rating, Pigweed (pigweed): 5
- Plant response rating (0 to 100), Oilseed Rape (oilseed rape; 8 g ai/ha): 0
- Plant response rating (0 to 100), Oilseed Rape (oilseed rape; 16 g ai/ha): 0
- Oilseed Rape plant response rating (oilseed rape; 13 to 15 days): 0
- Plant response rating, Oilseed Rape (oilseed rape): 0
- Plant response rating (0 to 100), Waterhemp (waterhemp; 8 g ai/ha): 0
- Plant response rating (0 to 100), Waterhemp (waterhemp; 16 g ai/ha): 5
- Waterhemp plant response rating (waterhemp; 13 to 15 days): 5
- Plant response rating, Waterhemp (waterhemp): 5
- Plant response rating (0 to 100), Velvetleaf (velvetleaf [9]; 8 g ai/ha): 5
- Plant response rating (0 to 100), Velvetleaf (velvetleaf [9]; 16 g ai/ha): 5
- Velvetleaf plant response rating (velvetleaf [9]; 13 to 15 days): 10
- Plant response rating, Velvetleaf (velvetleaf [9]): 10

Compound: Clc1cnc(Oc2ccccc2-n2cc(I)nn2)nc1 [Compound 222]
- Crabgrass, Large plant response rating (large (Lg) crabgrass; [12]): 100
- Velvetleaf plant response rating (velvetleaf [1]; [12]): 100
- Corn plant response rating (corn [2]; [12]): 60
- Plant response rating, Barnyardgrass (barnyardgrass; [13]): 100
- Plant response rating, Foxtail, Giant (giant foxtail [3]; [13]): 90
- Plant response rating, Morningglory (morningglory [4]; [13]): 100
- Plant response rating, Corn (corn [5]; [13]): 50
- Plant response rating, Ducksalad (Heteranthera limosa): 50
- Plant response rating (0 to 100), Corn (corn [6]; 8 g ai/ha): 0
- Plant response rating (0 to 100), Corn (corn [6]; 16 g ai/ha): 5
- Corn plant response rating (corn [6]; 13 to 15 days): 5
- Plant response rating, Corn (corn [6]; 13 to 15 days): 0
- Plant response rating (0 to 100), Foxtail, Giant (giant foxtail [7]; 8 g ai/ha): 0
- Plant response rating (0 to 100), Foxtail, Giant (giant foxtail [7]; 16 g ai/ha): 5
- Foxtail, Giant plant response rating (giant foxtail [7]; 13 to 15 days): 5
- Plant response rating, Foxtail, Giant (giant foxtail [7]; 13 to 15 days): 5
- Plant response rating (0 to 100), Johnsongrass (johnsongrass; 8 g ai/ha): 0
- Plant response rating (0 to 100), Johnsongrass (johnsongrass; 16 g ai/ha): 0
- Johnsongrass plant response rating (johnsongrass; 13 to 15 days): 10
- Plant response rating, Johnsongrass (johnsongrass; 13 to 15 days): 10
- Plant response rating (0 to 100), Morningglory (morningglory [8]; 8 g ai/ha): 40
- Plant response rating (0 to 100), Morningglory (morningglory [8]; 16 g ai/ha): 90
- Morningglory plant response rating (morningglory [8]; 13 to 15 days): 45
- Plant response rating, Morningglory (morningglory [8]; 13 to 15 days): 70
- Plant response rating (0 to 100), Pigweed (pigweed; 8 g ai/ha): 65
- Plant response rating (0 to 100), Pigweed (pigweed; 16 g ai/ha): 70
- Pigweed plant response rating (pigweed; 13 to 15 days): 80
- Plant response rating, Pigweed (pigweed; 13 to 15 days): 85
- Plant response rating (0 to 100), Oilseed Rape (oilseed rape; 8 g ai/ha): 10
- Plant response rating (0 to 100), Oilseed Rape (oilseed rape; 16 g ai/ha): 5
- Oilseed Rape plant response rating (oilseed rape; 13 to 15 days): 10
- Plant response rating, Oilseed Rape (oilseed rape; 13 to 15 days): 20
- Plant response rating (0 to 100), Waterhemp (waterhemp; 8 g ai/ha): 60
- Plant response rating (0 to 100), Waterhemp (waterhemp; 16 g ai/ha): 70
- Waterhemp plant response rating (waterhemp; 13 to 15 days): 90
- Plant response rating, Waterhemp (waterhemp; 13 to 15 days): 90
- Plant response rating (0 to 100), Velvetleaf (velvetleaf [9]; 8 g ai/ha): 35
- Plant response rating (0 to 100), Velvetleaf (velvetleaf [9]; 16 g ai/ha): 40
- Velvetleaf plant response rating (velvetleaf [9]; 13 to 15 days): 35
- Plant response rating, Velvetleaf (velvetleaf [9]; 13 to 15 days): 50
